Data set [1] is described as follows: NOVARTIS: Cytotoxicity against human hepatocellular carcinoma cell line (Huh7). It is filed as toxicity, cell-based, Huh-7. Particulars: Huh7 cells (hepatocellular carcinoma cell line).
Data set [2] concerns Plasmodium falciparum. The data set can be described thus: NOVARTIS: Inhibition of Plasmodium falciparum 3D7 (drug-susceptible) proliferation in erythrocyte-based infection assay. Format: functional, organism-based. Particulars: Plasmodium falciparum, 3D7.
Data set [3] deals with Plasmodium falciparum. Briefly: NOVARTIS: Inhibition of Plasmodium falciparum W2 (drug-resistant) proliferation in erythrocyte-based infection assay. Format: functional, organism-based. To be noted: Plasmodium falciparum, W2; read-out: EC50.

These results are taken from ChEMBL document CHEMBL1156829 (Proc Natl Acad Sci U S A, 2008).

Take `Brc1ccc2c(c1)c1ccccc1n2CC1CO1` (centres undefined): half-maximal cytotoxicity in data set [1] (CC50) was put at 29.4 µM. In addition, the EC50 (as a rule, the concentration at which the effect is half-maximal) with Plasmodium falciparum [2] worked out at 4.73 µM; in the data set with Plasmodium falciparum [3] it was 2.25 µM.
The matching figures for `CCCCc1ccc(C(=O)N(CCC(=O)Nc2nnc(-c3ccc(OC)cc3)s2)CCc2ccc(OC)c(OC)c2)cc1`: greater than 10 µM, 1.24 µM and greater than 0.757 µM.
For `CC(C)(C)OC(=O)NCC(=O)Oc1cc2oc(=O)cc(-c3ccccc3)c2cc1Cl`, the 50% cytotoxic concentration (CC50) – broadly, the concentration at which the toxic effect on the cells reaches its halfway point – in data set [1] is greater than 10 µM. Moreover, the EC50 in the data set with Plasmodium falciparum [2] is greater than 1.25 µM; in the data set on Plasmodium falciparum [3], greater than 0.755 µM.
Taken in the same sequence, the figures for `CCOC(=O)N1CCN(C(=O)C(=O)NNC(=O)COc2ccc(Cl)cc2Br)CC1` were greater than 10 µM, greater than 1.25 µM and 0.769 µM.
The matching figures for `Cc1ccc(C(C(=O)NCc2ccccc2)N(C(=O)c2snc(C(N)=O)c2N)c2ccccc2)o1` (centres undefined): greater than 10 µM, 1.23 µM and greater than 0.755 µM.
The matching figures for `O=C(NCCCCNc1ccnc2cc(Cl)ccc12)c1cc(C(F)(F)F)cc(C(F)(F)F)c1`: greater than 10 µM, 0.642 µM and 0.766 µM.
In turn, `O=C(NC(=S)Nc1ccc([N+](=O)[O-])cc1Cl)c1ccco1` gave a CC50 in data set [1] greater than 10 µM. Moreover, the EC50 is greater than 1.53 µM in the data set on Plasmodium falciparum [2] and greater than 0.769 µM with Plasmodium falciparum [3].
Taken in the same sequence, the figures for `CC1CCCCN1CCCNc1ncc(C(=O)NCc2ccccc2)c(NCC2CCCCC2)n1` (centres undefined) were greater than 10 µM, 0.582 µM and greater than 0.759 µM.
For `COc1ccc(-c2csc3nc(COc4cccc(C)c4)nn23)c(O)c1`, the CC50 in data set [1] is greater than 100 µM. Also, the concentration for a half-maximal effect (EC50) with Plasmodium falciparum [2] is greater than 4.62 µM; with Plasmodium falciparum [3] it was 7.59 µM.
The matching figures for `CCOC(=O)N1CCN(C(=O)C(NC(=O)C2CCC(C)CC2)C(C)C)CC1` (centres undefined): greater than 10 µM, greater than 1.67 µM and greater than 0.755 µM.
Taken in the same sequence, the figures for `CCCC(=O)O[C@]1(C(=O)CCl)[C@@H](C)C[C@H]2[C@@H]3CCC4=CC(=O)C=C[C@]4(C)[C@@]3(F)C(=O)C[C@@]21C` were 80 µM, greater than 12.5 µM and 6.08 µM.
Turning to `CCn1c2ccccc2c2cc(C=NNC(=O)c3nnn(-c4nonc4N)c3-c3ccccc3)ccc21`, the CC50 in data set [1] is greater than 10 µM. Further, the EC50 is greater than 1.25 µM with Plasmodium falciparum [2] and greater than 0.76 µM with Plasmodium falciparum [3].
The matching figures for `COc1ccc(OC)c(-c2ccc(O)c(CNCC3(O)CCCCC3)c2)c1`: greater than 10 µM, 0.818 µM and 0.762 µM.
Consider `CCc1ccccc1N1C(=O)CN(Cc2ccccc2)C1=S`, for which the midpoint of cytotoxicity in data set [1], the CC50, lay at 78.8 µM. In addition, the 50% effective concentration (EC50) was greater than 12.5 µM in the data set on Plasmodium falciparum [2] and 6 µM in the data set with Plasmodium falciparum [3].
Taken in the same sequence, the figures for `CC(C)(C)c1cc(Br)cc(C=NNc2ccc([N+](=O)[O-])cc2)c1O` were greater than 10 µM, greater than 1.21 µM and 0.761 µM.
Taken in the same sequence, the figures for `Cc1ccc(-n2c(C(C)N(CCc3ccccc3)C(=O)c3cccc(F)c3)nc3ccccc3c2=O)c(C)c1` (centres undefined) were greater than 10 µM, greater than 1.25 µM and 0.764 µM.
Taken in the same sequence, the figures for `CCN1C(=Cc2ccc3c4ccoc4ccc3[n+]2CC)C=Cc2c1ccc1occc21` were greater than 10 µM, 0.534 µM and 0.764 µM.
The molecule `CCCCCCN(C(=O)Nc1ccccc1OC)C(C)c1nc2ccccc2c(=O)n1-c1ccccc1OCC` (centres undefined) gave a CC50 in data set [1] greater than 10 µM. The EC50 turned out to be 0.852 µM with Plasmodium falciparum [2] and 0.753 µM in the data set on Plasmodium falciparum [3].
Taken in the same sequence, the figures for `COc1ccc(OC)c(-c2ccc(O)c(CNCCc3ccc(Cl)cc3)c2)c1` were greater than 10 µM, 0.987 µM and 0.749 µM.
Taken in the same sequence, the figures for `O=C(CCN1C(=O)C2CCCCC2C1=O)N1CCc2ccccc2C1` (centres undefined) were greater than 100 µM, greater than 4.85 µM and 7.49 µM.
As for `COc1cc2nc(CN(C)C(C)c3cccs3)nc(N3CCCC3)c2cc1OC` (centres undefined), the CC50 in data set [1] worked out at 26.4 µM. For the same molecule, the EC50 was greater than 12.5 µM with Plasmodium falciparum [2] and 1.99 µM in the data set on Plasmodium falciparum [3].
The matching figures for `N#Cc1cccc(/C=C/C(=O)O)c1`: greater than 10 µM, 1.65 µM and 0.752 µM.
Consider `COc1cc(NC(C)CCCN(Cc2ccc(Cl)cc2)C(=O)Nc2cccc(C(F)(F)F)c2)c2ncccc2c1` (centres undefined), for which the CC50 in data set [1] was greater than 4.44 µM. Moreover, the EC50 turned out to be 0.798 µM in the data set on Plasmodium falciparum [2] and 0.332 µM in the data set with Plasmodium falciparum [3].
Turning to `CCCCCCc1ccc(C(=O)N(CC(=O)Nc2cc(C(C)(C)C)nn2-c2ccc(Cl)c(Cl)c2)C(C)C)cc1`, in data set [1], the CC50 was greater than 10 µM. Moreover, the EC50 with Plasmodium falciparum [2] was 1.39 µM; with Plasmodium falciparum [3], greater than 0.752 µM.
`COc1ccc(C2=C/C(=C/c3cccc(OC)c3OC)C(=O)O2)cc1OC` showed a CC50 in data set [1] greater than 10 µM. In addition, the EC50 with Plasmodium falciparum [2] is 1.15 µM; in the data set with Plasmodium falciparum [3] it was greater than 0.751 µM.
Taken in the same sequence, the figures for `CCOc1ccc(OCc2nnc(S)n2N)cc1` were greater than 10 µM, greater than 1.25 µM and greater than 0.752 µM.
The matching figures for `O=C1c2ccccc2-c2nc3c(Cl)cc(C(F)(F)F)cc3nc21`: greater than 10 µM, 1.03 µM and 0.747 µM.
Take `CCCN(CC(=O)Nc1cc(C(C)(C)C)nn1-c1cccc(C)c1C)C(=O)C(C)(C)C`: the CC50 in data set [1] was greater than 10 µM. The 50% effective concentration (EC50) in the data set with Plasmodium falciparum [2] was greater than 1.25 µM; in the data set with Plasmodium falciparum [3], greater than 0.763 µM.
The matching figures for `C1CCC(NP2(NC3CCCCC3)=NP(NC3CCCCC3)(NC3CCCCC3)=NP(NC3CCCCC3)(NC3CCCCC3)=N2)CC1`: 41.4 µM, 6.61 µM and 3.15 µM.
Taken in the same sequence, the figures for `Nc1ccc(-c2nc(-c3ccc(N)cc3)c3ccccc3n2)cc1` were greater than 10 µM, greater than 1.25 µM and 0.759 µM.
In data set [1], `CCOc1ccc(NC(=O)C(C)Sc2nc3ccccc3[nH]2)cc1` (centres undefined) had a CC50 greater than 100 µM. Moreover, the EC50 with Plasmodium falciparum [2] was greater than 12.5 µM; in the data set with Plasmodium falciparum [3], greater than 7.6 µM.
The matching figures for `COc1ccc(CC(=O)NCCCCNc2ccnc3cc(Cl)ccc23)cc1`: 4.5 µM, 0.55 µM and 0.345 µM.
The matching figures for `N#Cc1cc2nc3c(nc2cc1C#N)-c1ccccc1C3=O`: 33.2 µM, 6.97 µM and 2.56 µM.
Taken in the same sequence, the figures for `Cc1cccc(-c2cc3nc(C)c(C)c(O)n3n2)c1` were greater than 100 µM, greater than 9.72 µM and 7.54 µM.
For the molecule `Cc1sc2ncn(CC(=O)N(C)Cc3ccccc3)c(=O)c2c1S(=O)(=O)N1CCOCC1`, the CC50 in data set [1] is greater than 10 µM. The EC50 was greater than 1.25 µM with Plasmodium falciparum [2] and greater than 0.77 µM in the data set with Plasmodium falciparum [3].
The matching figures for `Cc1ccc(C(C(=O)NC(C)(C)C)N(C(=O)c2ccc(-c3ccccc3)[nH]2)c2ccc(C3CCCCC3)cc2)o1` (centres undefined): greater than 10 µM, 0.337 µM and 0.765 µM.
Taken in the same sequence, the figures for `O=C(NNc1c2ccccc2nc2ccccc12)Nc1ccccc1` were greater than 10 µM, 0.873 µM and 0.756 µM.
The matching figures for `Cc1ccc(-n2c(C(C)N(Cc3ccco3)C(=O)C3CCC3)nc3cc(Cl)ccc3c2=O)cc1` (centres undefined): greater than 2.76 µM, greater than 1.68 µM and 0.208 µM.
